Values after ≈ are worked out from the molar mass of the structure shown.
Key:
Format in all cases: functional
[1] = test system: Enterococcus faecalis; test: Inhibitory activity against Enterococcus faecalis UC9217
[2] = test system: Haemophilus influenzae; test: Inhibitory activity against Haemophilus influenzae UC30063
[3] = test system: Moraxella catarrhalis; test: Inhibitory activity against Moraxella catarrhalis UC30610
[4] = test system: Streptococcus pneumoniae; test: Inhibitory activity against Streptococcus pneumoniae UC9912
[5] = test system: Staphylococcus epidermidis; test: Inhibitory activity against Methicillin-resistant Staphylococcus epidermidis UC12084
[6] = test system: Staphylococcus aureus; test: Inhibitory activity against Methicillin-resistant Staphylococcus aureus UC6685
[7] = test system: Staphylococcus aureus; test: Inhibitory activity against Methicillin-susceptible Staphylococcus aureus UC9213
[8] = test system: Mus musculus; test: Dose required to cure 50% of Staphylococcus aureus infected mice in the presence of eperezolid when administered orally;vlaue ranges from 1.9-6.6; settings: po
[9] = test system: Mus musculus; test: Dose required to cure 50% of Staphylococcus aureus infected mice when administered orally administered; settings: po
[10] = test system: Mus musculus; test: Dose required to cure 50% of Staphylococcus aureus infected mice when administered orally; settings: po
[11] = test system: Mus musculus; test: Dose required to cure 50% of Staphylococcus aureus infected mice in the presence of eperezolid when administered orally; settings: po
[12] = test system: Mus musculus; test: Dose required to cure 50% of Staphylococcus aureus infected mice in the presence of vancomycin when orally administered; settings: po
[13] = test system: Mus musculus; test: Dose required to cure 50% of Staphylococcus aureus infected mice when orally administered; value ranges from 7.9-32.5; settings: po
[14] = test system: Mus musculus; test: Dose required to cure 50% of Staphylococcus aureus infected mice in the presence of eperezolid when orally administered.; settings: po
[15] = test system: Mus musculus; test: Dose required to cure 50% of Staphylococcus aureus infected mice when administered orally;; settings: po
[16] = test system: Mus musculus; test: Dose required to cure 50% of Staphylococcus aureus infected mice in the presence of eperezolid when administered orally; value ranges from 4.0-26.7; settings: po
[17] = test system: Mus musculus; test: Dose required to cure 50% of Staphylococcus aureus infected mice in the presence of eperezolid when administered orally; value ranges from 2.9-7.1); settings: po
[18] = test system: Mus musculus; test: Dose required to cure 50% of Staphylococcus aureus infected mice when administered orally; value ranges from 5.7-14.5; settings: po
[19] = test system: Mus musculus; test: Dose required to cure 50% of Staphylococcus aureus infected mice when orally administered; value ranges from 4.3-13.3; settings: po
[20] = test system: Mus musculus; test: Dose(orally administered) required to cure 50% of Staphylococcus aureus infected mice in the presence of eperezolid when orally administered; value ranges from 2.2-6.1; settings: po
[21] = test system: Mus musculus; test: Dose required to cure 50% of Staphylococcus aureus infected mice in the presence of vancomycin when administered orally; value ranges from 1.43-3.5; settings: po
[22] = test system: Mus musculus; test: Dose required to cure 50% of Staphylococcus aureus infected mice when administered orally; value ranges from 5.5-22.1; settings: po
[23] = test system: Mus musculus; test: Dose(orally administered) required to cure 50% of Staphylococcus aureus infected mice in the presence of eperezolid when administered orally; value ranges from 0.8-2.3; settings: po
[24] = test system: Mus musculus; test: Dose required to cure 50% of Staphylococcus aureus infected mice when administered orally.; settings: po
[25] = test system: Mus musculus; test: Dose required to cure 50% of Staphylococcus aureus infected mice in the presence of vancomycin when administered orally; value ranges from 2.5-6.4; settings: po
[26] = test system: Mus musculus; test: Dose required to cure 50% of Staphylococcus aureus infected mice when administered orally; value ranges from 1.4-3.8; settings: po
[27] = test system: Mus musculus; test: Dose required to cure 50% of Staphylococcus aureus infected mice when administered orally; value ranges from 2.9-8.5; settings: po
[28] = test system: Mus musculus; test: Dose(orally administered) required to cure 50% of Staphylococcus aureus infected mice; settings: po

Q: Which results are given for `CO/N=C/c1cn(-c2ccc(N3C[C@H](CNC(C)=O)OC3=O)cc2F)nn1`?
A: MIC [1]: 4 µg/mL (≈ 10.6 µM); MIC [2]: > 16 µg/mL; MIC [3]: 16 µg/mL (≈ 42.5 µM); MIC [4]: 0.5 µg/mL (≈ 1.33 µM); MIC [5]: 1 µg/mL (≈ 2.66 µM); MIC [6]: 2 µg/mL (≈ 5.31 µM); MIC [7]: 4 µg/mL (≈ 10.6 µM); ED50 [8]: 3.8 mg/kg/day; ED50 [9]: 8.6 mg/kg/day

Q: What does the source list for `COC(=O)c1cn(-c2ccc(N3C[C@H](CNC(C)=O)OC3=O)cc2F)nn1`?
A: MIC [1]: 4 µg/mL (≈ 10.6 µM); MIC [2]: > 16 µg/mL; MIC [3]: 16 µg/mL (≈ 42.4 µM); MIC [4]: 1 µg/mL (≈ 2.65 µM); MIC [5]: 2 µg/mL (≈ 5.3 µM); MIC [6]: 4 µg/mL (≈ 10.6 µM); MIC [7]: 4 µg/mL (≈ 10.6 µM); ED50 [10]: > 20 mg/kg/day; ED50 [11]: 15.3 mg/kg/day

Q: `CC(=O)NC[C@H]1CN(c2ccc(-n3cccc3)c(F)c2)C(=O)O1` was tested. Which MIC [1] did it give?
A: 1 µg/mL (≈ 3.15 µM)

Q: What about the MIC [2] of the same molecule?
A: 4 µg/mL (≈ 12.6 µM)

Q: And the MIC [3]?
A: 2 µg/mL (≈ 6.3 µM)

Q: And the MIC [4]?
A: ≤ 0.5 µg/mL

Q: What about the MIC [5] of the same molecule?
A: ≤ 0.5 µg/mL

Q: And the MIC [6]?
A: 1 µg/mL (≈ 3.15 µM)

Q: What about the MIC [7] of the same molecule?
A: 1 µg/mL (≈ 3.15 µM)

Q: What about the ED50 [12] of the same molecule?
A: 2.7 mg/kg/day

Q: What about the ED50 [13] of the same molecule?
A: 13.2 mg/kg/day

Q: For `CC(=O)NC[C@H]1CN(c2ccc(-n3cc(/C(C)=N\O)nn3)c(F)c2)C(=O)O1`, which MIC [1] is on record?
A: 8 µg/mL (≈ 21.3 µM)

Q: And the MIC [2]?
A: 16 µg/mL (≈ 42.5 µM)

Q: What about the MIC [3] of the same molecule?
A: 4 µg/mL (≈ 10.6 µM)

Q: What about the MIC [4] of the same molecule?
A: 0.5 µg/mL (≈ 1.33 µM)

Q: And the MIC [5]?
A: 2 µg/mL (≈ 5.31 µM)

Q: What about the MIC [6] of the same molecule?
A: 4 µg/mL (≈ 10.6 µM)

Q: What about the MIC [7] of the same molecule?
A: 4 µg/mL (≈ 10.6 µM)

Q: `CC(=O)NC[C@H]1CN(c2ccc(-n3ccc(/C(C)=N\O)c3)c(F)c2)C(=O)O1` was tested. Which MIC [1] did it give?
A: 1 µg/mL (≈ 2.67 µM)

Q: What about the MIC [2] of the same molecule?
A: 8 µg/mL (≈ 21.4 µM)

Q: What about the MIC [3] of the same molecule?
A: 2 µg/mL (≈ 5.34 µM)

Q: What about the MIC [4] of the same molecule?
A: 0.25 µg/mL (≈ 0.668 µM)

Q: And the MIC [5]?
A: 0.5 µg/mL (≈ 1.34 µM)

Q: And the MIC [6]?
A: 1 µg/mL (≈ 2.67 µM)

Q: What about the MIC [7] of the same molecule?
A: 2 µg/mL (≈ 5.34 µM)

Q: And the ED50 [10]?
A: 15 mg/kg/day

Q: And the ED50 [14]?
A: 10 mg/kg/day

Q: How did the MIC [1] turn out when `CC(=O)NC[C@H]1CN(c2ccc(-n3cnnn3)c(F)c2)C(=O)O1` was run?
A: 2 µg/mL (≈ 6.24 µM)

Q: What about the MIC [2] of the same molecule?
A: 16 µg/mL (≈ 50 µM)

Q: What about the MIC [3] of the same molecule?
A: 16 µg/mL (≈ 50 µM)

Q: What about the MIC [4] of the same molecule?
A: 1 µg/mL (≈ 3.12 µM)

Q: What about the MIC [5] of the same molecule?
A: 2 µg/mL (≈ 6.24 µM)

Q: What about the MIC [6] of the same molecule?
A: 2 µg/mL (≈ 6.24 µM)

Q: What about the MIC [7] of the same molecule?
A: 4 µg/mL (≈ 12.5 µM)

Q: What about the ED50 [15] of the same molecule?
A: > 20 mg/kg/day

Q: And the ED50 [16]?
A: 7.8 mg/kg/day

Q: How did the MIC [1] turn out when `CC(=O)NC[C@H]1CN(c2ccc(-n3cc(C(C)=O)nn3)c(F)c2)C(=O)O1` was run?
A: 2 µg/mL (≈ 5.54 µM)

Q: What about the MIC [2] of the same molecule?
A: 8 µg/mL (≈ 22.1 µM)

Q: What about the MIC [3] of the same molecule?
A: 8 µg/mL (≈ 22.1 µM)

Q: And the MIC [4]?
A: 0.5 µg/mL (≈ 1.38 µM)

Q: And the MIC [5]?
A: 1 µg/mL (≈ 2.77 µM)

Q: What about the MIC [6] of the same molecule?
A: 1 µg/mL (≈ 2.77 µM)

Q: And the MIC [7]?
A: 1 µg/mL (≈ 2.77 µM)

Q: What about the ED50 [17] of the same molecule?
A: 4.4 mg/kg/day

Q: And the ED50 [18]?
A: 8.8 mg/kg/day

Q: Which results are given for `CO/N=C\c1ccn(-c2ccc(N3C[C@H](CNC(C)=O)OC3=O)cc2F)c1`?
A: MIC [1]: 1 µg/mL (≈ 2.67 µM); MIC [2]: 16 µg/mL (≈ 42.7 µM); MIC [3]: 16 µg/mL (≈ 42.7 µM); MIC [4]: 0.25 µg/mL (≈ 0.668 µM); MIC [5]: 0.5 µg/mL (≈ 1.34 µM); MIC [6]: 1 µg/mL (≈ 2.67 µM); MIC [7]: 1 µg/mL (≈ 2.67 µM); ED50 [19]: 7.3 mg/kg/day; ED50 [20]: 3.5 mg/kg/day

Q: `CC(=O)NC[C@H]1CN(c2ccc(-n3ccnc3)c(F)c2)C(=O)O1` was tested. Which MIC [1] did it give?
A: 2 µg/mL (≈ 6.28 µM)

Q: What about the MIC [2] of the same molecule?
A: 8 µg/mL (≈ 25.1 µM)

Q: And the MIC [3]?
A: 4 µg/mL (≈ 12.6 µM)

Q: What about the MIC [4] of the same molecule?
A: ≤ 0.5 µg/mL

Q: What about the MIC [5] of the same molecule?
A: ≤ 0.5 µg/mL

Q: What about the MIC [6] of the same molecule?
A: 1 µg/mL (≈ 3.14 µM)

Q: What about the MIC [7] of the same molecule?
A: 2 µg/mL (≈ 6.28 µM)

Q: And the ED50 [21]?
A: 2.2 mg/kg/day

Q: What about the ED50 [22] of the same molecule?
A: 9.5 mg/kg/day

Q: For `CC(=O)NC[C@H]1CN(c2ccc(-n3ccc(CCCNS(C)(=O)=O)c3)c(F)c2)C(=O)O1`, which MIC [1] is on record?
A: 2 µg/mL (≈ 4.42 µM)

Q: What about the MIC [2] of the same molecule?
A: > 16 µg/mL

Q: And the MIC [3]?
A: 8 µg/mL (≈ 17.7 µM)

Q: What about the MIC [4] of the same molecule?
A: 0.5 µg/mL (≈ 1.1 µM)

Q: What about the MIC [5] of the same molecule?
A: 2 µg/mL (≈ 4.42 µM)

Q: And the MIC [6]?
A: 4 µg/mL (≈ 8.84 µM)

Q: And the MIC [7]?
A: 8 µg/mL (≈ 17.7 µM)

Q: And the ED50 [23]?
A: 1.8 mg/kg/day

Q: What about the ED50 [24] of the same molecule?
A: > 20 mg/kg/day

Q: Which results are given for `CC(=O)NC[C@H]1CN(c2ccc(N3CCN(C(=O)CO)CC3)c(F)c2)C(=O)O1` [EPEREZOLID]?
A: ED50 [25]: 3.9 mg/kg/day; ED50 [26]: 1.9 mg/kg/day

Q: `CC(=O)NC[C@H]1CN(c2ccc(N3CCOCC3)c(F)c2)C(=O)O1` [LINEZOLID] was tested. Which ED50 [25] did it give?
A: 3.9 mg/kg/day

Q: And the ED50 [27]?
A: 5.6 mg/kg/day

Q: With `CN[C@H](CC(C)C)C(=O)N[C@H]1C(=O)N[C@@H](CC(N)=O)C(=O)N[C@H]2C(=O)N[C@H]3C(=O)N[C@H](C(=O)N[C@H](C(=O)O)c4cc(O)cc(O)c4-c4cc3ccc4O)[C@H](O)c3ccc(c(Cl)c3)Oc3cc2cc(c3O[C@@H]2O[C@H](CO)[C@@H](O)[C@H](O)[C@H]2O[C@H]2C[C@](C)(N)[C@H](O)[C@H](C)O2)Oc2ccc(cc2Cl)[C@H]1O` [VANCOMYCIN] as the molecule, how does the ED50 [28] read?
A: 3.9 mg/kg/day
